Experimental data: patent publication US11111245B2, “Derivatives of N-cycloalkyl/heterocycloalkyl-4-(imidazo[1,2-a]pyridine)pyrimidin-2-amine as therapeutic agents” (Aucentra Therapeutics Pty Ltd, priority 2017, dated 2021)

Key:
[1] = system: leukemia cell lines; experiment: Resazurin cell viability assay on leukemia cell lines (72 h growth inhibition, GI50); format: cell-based; settings: Homo sapiens, MV4-11 cells
How it was run: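 Viability is measured by MTT in solid tumour cells and by resazurin in leukaemia cells. Reported values are GI50s calculated with non-linear regression analysis.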

[2] = biological target: CDK4/D1 (Homo sapiens, UniProt P11802); experiment: ADP Glo Kinase assay CDK4/D1; format: biochemical; settings: CDK4D1; for Ki: read-out: CDK inhibition, Ki (μM) CDK4D1; for remaining activity at 10 µM: compound at 10 μM, read-out: residual activity (%) at 10 μM CDK4D1
Chain of CDK4/D1 (P11802 whole entry): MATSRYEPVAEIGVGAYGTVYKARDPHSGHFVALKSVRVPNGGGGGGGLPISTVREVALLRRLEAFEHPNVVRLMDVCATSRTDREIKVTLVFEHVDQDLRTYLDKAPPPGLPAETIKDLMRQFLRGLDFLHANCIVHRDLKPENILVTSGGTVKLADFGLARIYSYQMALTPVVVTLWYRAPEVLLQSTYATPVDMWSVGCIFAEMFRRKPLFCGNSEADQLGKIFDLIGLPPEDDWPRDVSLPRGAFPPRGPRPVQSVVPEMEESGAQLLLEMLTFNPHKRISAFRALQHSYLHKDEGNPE
Chain of CDK4/D1 (P24385 whole entry partner): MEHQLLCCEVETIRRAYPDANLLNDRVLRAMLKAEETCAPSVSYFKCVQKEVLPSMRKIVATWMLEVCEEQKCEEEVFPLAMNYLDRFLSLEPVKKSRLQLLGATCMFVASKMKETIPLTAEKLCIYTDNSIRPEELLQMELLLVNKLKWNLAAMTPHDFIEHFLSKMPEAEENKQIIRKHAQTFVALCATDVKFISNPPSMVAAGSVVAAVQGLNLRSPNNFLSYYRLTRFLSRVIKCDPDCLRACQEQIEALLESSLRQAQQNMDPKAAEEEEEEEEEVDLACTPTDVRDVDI
How it was run: (§1)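 Luminescent ADP detection measured activity after a 40 min, 37° C ATP-initiated reaction, using RB-CTF for CDK4/D1 and CDK6/D3 and RBER-IRStide for CDK9/T1. Controls lacked or contained kinase. Values: IC50 by four-parameter nonlinear regression, Ki from ATP Km.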

[3] = biological target: T1, CDKs and other kinases (Homo sapiens, UniProt P50613); experiment: Radiometric kinase assay (Eurofins Pharma Discovery or Reaction Biology Corporation Kinase Profiler); format: biochemical; settings: CDK7H; for Ki: read-out: CDK inhibition, Ki (μM) CDK7H; for remaining activity at 10 µM: compound at 10 μM, read-out: residual activity (%) at 10 μM CDK7H
T1 construct: other: CDK7H; residual activity (%) at 10 μM CDK7H; compound at 10 μM
T1 sequence (P50613 whole entry): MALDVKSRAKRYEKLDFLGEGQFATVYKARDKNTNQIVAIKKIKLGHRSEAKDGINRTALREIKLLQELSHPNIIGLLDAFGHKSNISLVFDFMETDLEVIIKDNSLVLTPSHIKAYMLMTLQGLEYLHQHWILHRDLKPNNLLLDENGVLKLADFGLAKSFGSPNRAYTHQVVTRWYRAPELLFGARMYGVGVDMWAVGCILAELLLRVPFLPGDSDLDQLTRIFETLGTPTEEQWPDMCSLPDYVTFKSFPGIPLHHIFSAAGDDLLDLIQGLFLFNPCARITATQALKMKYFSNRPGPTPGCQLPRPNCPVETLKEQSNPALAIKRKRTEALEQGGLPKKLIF
How it was run: (§2)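 Other CDKs and further kinases were profiled externally by radiometric assay. In-house ADP Glo assays covered CDK4/D1 and CDK6/D3 (RB-CTF substrate, pH 7.5 Tris buffer with MgCl2, DTT, BSA) and CDK9/T1 (RBER-IRStide substrate), 40 min at 37° C.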

[4] = biological target: T2, CDKs and other kinases (Homo sapiens, UniProt P24941); experiment: as above; format: biochemical; settings: CDK2A; for Ki: read-out: CDK inhibition, Ki (μM) CDK2A; for remaining activity at 10 µM: compound at 10 μM, read-out: residual activity (%) at 10 μM CDK2A
T2 construct: other: CDK2A; residual activity (%) at 10 μM CDK2A; compound at 10 μM
How it was run: as §2

[5] = biological target: T3, CDKs and other kinases (Homo sapiens, UniProt P06493); experiment: as above; format: biochemical; settings: CDK1B; for Ki: read-out: CDK inhibition, Ki (μM) CDK1B; for remaining activity at 10 µM: compound at 10 μM, read-out: residual activity (%) at 10 μM CDK1B
T3 construct: other: CDK1B; residual activity (%) at 10 μM CDK1B; compound at 10 μM
T3 sequence (P06493 whole entry): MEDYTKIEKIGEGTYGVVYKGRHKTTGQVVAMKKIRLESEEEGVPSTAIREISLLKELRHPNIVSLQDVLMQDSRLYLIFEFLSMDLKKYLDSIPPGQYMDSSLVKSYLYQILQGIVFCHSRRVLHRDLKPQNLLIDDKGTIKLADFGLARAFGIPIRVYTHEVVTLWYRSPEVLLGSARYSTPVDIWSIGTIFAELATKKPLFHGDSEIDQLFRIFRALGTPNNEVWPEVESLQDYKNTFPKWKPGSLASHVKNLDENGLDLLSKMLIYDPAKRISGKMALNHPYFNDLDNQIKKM
How it was run: as §2

[6] = biological target: CDK6/D3 (Homo sapiens, UniProt Q00534); experiment: ADP Glo Kinase assay CDK6/D3; format: biochemical; settings: CDK6D3; for Ki: read-out: CDK inhibition, Ki (μM) CDK6D3; for remaining activity at 10 µM: compound at 10 μM, read-out: residual activity (%) at 10 μM CDK6D3
Chain of CDK6/D3 (Q00534 whole entry): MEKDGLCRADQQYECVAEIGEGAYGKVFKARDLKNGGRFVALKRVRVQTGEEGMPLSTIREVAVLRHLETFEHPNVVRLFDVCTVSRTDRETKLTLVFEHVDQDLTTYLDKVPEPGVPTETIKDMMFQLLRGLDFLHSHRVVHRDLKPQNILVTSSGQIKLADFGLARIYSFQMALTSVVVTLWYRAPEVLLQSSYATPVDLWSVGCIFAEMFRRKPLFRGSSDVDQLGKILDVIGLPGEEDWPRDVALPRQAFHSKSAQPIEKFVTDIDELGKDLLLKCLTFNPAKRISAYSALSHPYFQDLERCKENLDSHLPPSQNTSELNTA
Chain of CDK6/D3 (P30281 whole entry partner): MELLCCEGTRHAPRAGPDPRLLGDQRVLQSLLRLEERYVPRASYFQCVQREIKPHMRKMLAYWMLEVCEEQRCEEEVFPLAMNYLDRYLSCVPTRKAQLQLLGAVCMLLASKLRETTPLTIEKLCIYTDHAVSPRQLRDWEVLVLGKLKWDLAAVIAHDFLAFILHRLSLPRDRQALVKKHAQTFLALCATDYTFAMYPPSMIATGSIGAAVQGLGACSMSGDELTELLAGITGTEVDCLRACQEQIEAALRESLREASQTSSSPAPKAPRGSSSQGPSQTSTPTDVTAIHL
How it was run: as §1

[7] = biological target: CDK9/T1 (Homo sapiens, UniProt P50750); experiment: ADP Glo Kinase assay CDK9/T1; format: biochemical; settings: CDK9T1; read-out: CDK inhibition, Ki (μM) CDK9T1
Chain of CDK9/T1 (P50750 whole entry): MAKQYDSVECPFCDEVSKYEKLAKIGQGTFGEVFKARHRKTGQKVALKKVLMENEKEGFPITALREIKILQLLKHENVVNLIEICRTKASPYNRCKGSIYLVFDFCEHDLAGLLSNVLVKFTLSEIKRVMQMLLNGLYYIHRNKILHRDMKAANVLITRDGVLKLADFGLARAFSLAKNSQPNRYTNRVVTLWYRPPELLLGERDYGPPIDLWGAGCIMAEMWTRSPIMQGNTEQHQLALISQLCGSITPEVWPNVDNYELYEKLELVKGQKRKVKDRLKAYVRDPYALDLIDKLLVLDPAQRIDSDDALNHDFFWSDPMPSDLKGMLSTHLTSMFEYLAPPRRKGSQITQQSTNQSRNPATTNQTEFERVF
Chain of CDK9/T1 (O60563 whole entry partner): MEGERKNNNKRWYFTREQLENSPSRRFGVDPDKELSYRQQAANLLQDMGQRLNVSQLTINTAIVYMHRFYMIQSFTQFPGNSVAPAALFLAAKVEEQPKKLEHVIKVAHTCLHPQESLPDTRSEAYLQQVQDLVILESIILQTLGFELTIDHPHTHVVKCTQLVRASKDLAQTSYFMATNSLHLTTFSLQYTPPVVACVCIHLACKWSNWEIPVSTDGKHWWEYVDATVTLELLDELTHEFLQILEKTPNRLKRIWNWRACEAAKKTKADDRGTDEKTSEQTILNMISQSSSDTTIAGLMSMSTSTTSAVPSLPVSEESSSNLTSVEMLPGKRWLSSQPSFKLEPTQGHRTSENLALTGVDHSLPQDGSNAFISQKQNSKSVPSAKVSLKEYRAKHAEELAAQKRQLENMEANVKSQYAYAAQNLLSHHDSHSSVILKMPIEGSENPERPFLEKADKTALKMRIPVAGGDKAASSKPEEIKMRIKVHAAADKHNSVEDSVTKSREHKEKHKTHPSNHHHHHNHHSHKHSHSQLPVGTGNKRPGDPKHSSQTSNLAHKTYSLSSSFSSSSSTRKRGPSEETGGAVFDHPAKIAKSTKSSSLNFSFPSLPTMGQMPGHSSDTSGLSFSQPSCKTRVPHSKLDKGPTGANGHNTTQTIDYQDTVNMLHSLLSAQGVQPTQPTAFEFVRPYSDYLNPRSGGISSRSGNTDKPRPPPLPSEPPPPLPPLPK
How it was run: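 ADP Glo luminescence, in-house: CDK4/D1, CDK6/D3 on RB-CTF substrate (Tris pH 7.5, MgCl2, DTT, BSA); CDK9/T1 on RBER-IRStide. Reaction 40 min, 37° C after ATP addition. 10-point 1:3 series, 10 μM to 0.5 nM. IC50 by 4-parameter logistic; Ki derived using ATP Km.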

Cc1cnc(N[C@H]2CC[C@H](N)CC2)nc1-c1cnc2ccc(Nc3cncnc3)cn12 [Compound 115, (1r,4r)-N^1-(5-Methyl-4-(6-(pyrimidin-5-ylamino)imidazo [1,2-a]pyridin-3-yl)pyrimidin-2-yl)cyclohexane-1,4-diamine]
GI50 [1]: 0.552 ± 0.166 µM
Ki [2]: 1.24 µM
Ki [3]: 4 µM
Ki [4]: 0.14 µM
Ki [5]: 1.35 µM
Ki [6]: 1.11 µM
Ki [7]: 0.006 µM

CCOc1ccc(Nc2ccc3ncc(-c4nc(N[C@H]5CC[C@H](N)CC5)ncc4C)n3c2)cn1 [Compound 67, (1r,4r)-N^1-(4-(6-((6-Ethoxypyridin-3-yl)amino)imidazo [1,2-a]pyridin-3-yl)-5-methylpyrimidin-2-yl)cyclohexane-1,4-diamine]
GI50 [1]: 0.128 ± 0.04 µM
remaining activity at 10 µM [2]: 31%
remaining activity at 10 µM [3]: 52%
remaining activity at 10 µM [4]: 10%
remaining activity at 10 µM [5]: 38%
remaining activity at 10 µM [6]: 29%
Ki [7]: 0.017 µM

Cc1cnc(N[C@H]2CC[C@H](O)CC2)nc1-c1cnc2ccc(-c3ccccc3)cn12 [Compound 105, (1r,4r)-4-((5-Methyl-4-(6-phenylimidazo[1,2-a]pyridin-3-yl)pyrimidin-2-yl)amino)cyclohexan-1-ol]
GI50 [1]: 0.748 ± 0.063 µM
remaining activity at 10 µM [2]: 93%
remaining activity at 10 µM [3]: 15%
remaining activity at 10 µM [4]: 3%
remaining activity at 10 µM [5]: 7%
remaining activity at 10 µM [6]: 94%
Ki [7]: 0.188 µM

Cc1cnc(N[C@]23C[C@@]4(C)C[C@](C)(C[C@](O)(C4)C2)C3)nc1-c1cnc2ccc(Nc3cccnc3)cn12 [Compound 101, (1s,3R,5S,7r)-3,5-Dimethyl-7-((5-methyl-4-(6-(pyridin-3-ylamino)imidazo[1,2-a]pyridin-3-yl)pyrimidin-2-yl)amino)adamantan-1-ol]
GI50 [1]: > 10 µM
remaining activity at 10 µM [2]: 97%
remaining activity at 10 µM [3]: 85%
remaining activity at 10 µM [4]: 41%
remaining activity at 10 µM [5]: 60%
remaining activity at 10 µM [6]: 100%
Ki [7]: 0.561 µM

Cc1cnc(N[C@H]2CC[C@H](N)CC2)nc1-c1cnc2ccc(NCc3ccc(F)cc3)cn12 [Compound 32, (1r,4r)-N^1-(4-(6-((4-Fluorobenzyl)amino)imidazo[1,2-a]pyridin-3-yl)-5-methylpyrimidin-2-yl)cyclohexane-1,4-diamine]
GI50 [1]: 0.066 ± 0.014 µM
remaining activity at 10 µM [2]: 16%
Ki [3]: 5.39 µM
Ki [4]: 0.63 µM
Ki [5]: > 10 µM
remaining activity at 10 µM [6]: 36%
Ki [7]: 0.094 µM

N[C@H]1CC[C@H](Nc2ncc(F)c(-c3cnc4ccc(-c5cccnc5)cn34)n2)CC1 [Compound 26, (1r,4r)-N^1-(5-Fluoro-4-(6-(pyridin-3-yl)imidazo[1,2-a]pyridin-3-yl)pyrimidin-2-yl)cyclohexane-1,4-diamine]
GI50 [1]: < 0.001 µM
remaining activity at 10 µM [2]: 9%
remaining activity at 10 µM [3]: 0%
remaining activity at 10 µM [4]: 5%
remaining activity at 10 µM [5]: 7%
remaining activity at 10 µM [6]: 24%
Ki [7]: 0.003 µM

COc1ccc(-c2ccc3ncc(-c4nc(N[C@H]5CC[C@H](N)CC5)ncc4Cl)n3c2)cn1 [Compound 81, (1r,4r)-N^1-(5-Chloro-4-(6-(6-methoxypyridin-3-yl)imidazo[1,2-a]pyridin-3-yl)pyrimidin-2-yl)cyclohexane-1,4-diamine]
GI50 [1]: 0.025 ± 0.011 µM
Ki [2]: 1.58 µM
Ki [3]: 0.21 µM
Ki [4]: 0.51 µM
Ki [5]: 2.01 µM
Ki [6]: 1.01 µM
Ki [7]: 0.008 µM

CS(=O)(=O)N1CCC(Nc2ncc(F)c(-c3cnc4ccccn34)n2)CC1 [Compound 24, 5-Fluoro-4-(imidazo[1,2-a]pyridin-3-yl)-N-(1-(methylsulfonyl)piperidin-4-yl)pyrimidin-2-amine]
GI50 [1]: 0.506 ± 0.104 µM
remaining activity at 10 µM [2]: -16%
Ki [3]: 0.281 µM
remaining activity at 10 µM [4]: -1%
remaining activity at 10 µM [5]: -1%
remaining activity at 10 µM [6]: 18%
Ki [7]: 0.141 µM

Cc1cnc(N[C@H]2CC[C@H](N)CC2)nc1-c1cnc2cc(-c3cccnc3)ccn12 [Compound 54, (1r,4r)-N^1-(5-Methyl-4-(7-(pyridin-3-yl)imidazo[1,2-a]pyridin-3-yl)pyrimidin-2-yl)cyclohexane-1,4-diamine]
GI50 [1]: 0.018 ± 0.004 µM
remaining activity at 10 µM [2]: 0%
remaining activity at 10 µM [3]: 6%
remaining activity at 10 µM [4]: 5%
remaining activity at 10 µM [5]: 29%
remaining activity at 10 µM [6]: 0%
Ki [7]: 0.11 µM

Cc1cnc(N[C@H]2CC[C@H](O)CC2)nc1-c1cnc2ccccn12 [Compound 107, (1r,4r)-4-((4-(Imidazo[1,2-a]pyridin-3-yl)-5-methylpyrimidin-2-yl)amino)cyclohexan-1-ol]
GI50 [1]: 1.42 ± 0.652 µM
remaining activity at 10 µM [2]: 37%
remaining activity at 10 µM [3]: 34%
remaining activity at 10 µM [4]: 5%
remaining activity at 10 µM [5]: 47%
remaining activity at 10 µM [6]: 54%
Ki [7]: 0.161 µM

COc1ccc(-c2ccc3ncc(-c4nc(N[C@H]5CC[C@H](N)CC5)ncc4Cl)n3c2)cc1 [Compound 82, (1r,4r)-N^1-(5-Chloro-4-(6-(4-methoxyphenyl)imidazo [1,2-a]pyridin-3-yl)pyrimidin-2-yl)cyclohexane-1,4-diamine]
GI50 [1]: 0.054 ± 0.015 µM
remaining activity at 10 µM [2]: 20%
Ki [3]: 0.15 µM
Ki [4]: 0.22 µM
Ki [5]: 0.82 µM
remaining activity at 10 µM [6]: 99%
Ki [7]: 0.018 µM

Fc1cnc(N[C@H]2CC[C@H](Nc3ccccn3)CC2)nc1-c1cnc2ccc(-c3ccccc3)cn12 [Compound 28, (1r,4r)-N^1-(5-Fluoro-4-(6-phenylimidazo[1,2-a]pyridin-3-yl)pyrimidin-2-yl)-N4-(pyridin-2-yl)cyclohexane-1,4-diamine]
GI50 [1]: 0.042 ± 0.017 µM
remaining activity at 10 µM [2]: 95%
remaining activity at 10 µM [3]: 2%
remaining activity at 10 µM [4]: 8%
remaining activity at 10 µM [5]: 4%
remaining activity at 10 µM [6]: 100%
Ki [7]: 0.85 µM

Cc1cnc(N[C@H]2CC[C@H](N)CC2)nc1-c1cnc2ccc(Oc3cccnc3)cn12 [Compound 74, (1r,4r)-N^1-(5-Methyl-4-(6-(pyridin-3-yloxy)imidazo[1,2-a]pyridin-3-yl)pyrimidin-2-yl)cyclohexane-1,4-diamine]
GI50 [1]: 0.349 ± 0.086 µM
remaining activity at 10 µM [2]: 41%
remaining activity at 10 µM [3]: 50%
remaining activity at 10 µM [4]: 11%
remaining activity at 10 µM [5]: 39%
remaining activity at 10 µM [6]: 46%
Ki [7]: 0.02 µM

Cc1cnc(NC2CCC(NCC(F)(F)F)CC2)nc1-c1cnc2ccc(Nc3cncnc3)cn12 (stereo not shown) [Compound 112, N^1-(5-Methyl-4-(6-(pyrimidin-5-ylamino)imidazo[1,2-a]pyridin-3-yl)pyrimidin-2-yl)-N^4-(2,2,2-trifluoroethyl) cyclohexane-1,4-diamine]
GI50 [1]: 2.55 ± 1.7 µM
Ki [2]: > 5 µM
Ki [3]: > 5 µM
Ki [4]: 0.49 µM
Ki [5]: 1.73 µM
remaining activity at 10 µM [6]: 45%
Ki [7]: 0.205 µM

Cc1cnc(N[C@H]2CC[C@H](N)CC2)nc1-c1cnc2ccc(-c3ccc(S(=O)(=O)N(C)C)cc3)cn12 [Compound 62, 4-(3-(2-(((1r,4r)-4-Aminocyclohexyl)amino)-5-methylpyrimidin-4-yl)imidazo[1,2-a]pyridin-6-yl)-N,N-dimethylbenzenesulfonamide]
GI50 [1]: 0.025 ± 0.009 µM
remaining activity at 10 µM [2]: 63%
remaining activity at 10 µM [3]: 60%
remaining activity at 10 µM [4]: 72%
remaining activity at 10 µM [5]: 87%
remaining activity at 10 µM [6]: 87%
Ki [7]: 0.497 µM

N[C@H]1CC[C@H](Nc2ncc(F)c(-c3cnc4cc(Nc5cccnc5)ccn34)n2)CC1 [Compound 46, (1r,4r)-N^1-(5-Fluoro-4-(7-(pyridin-3-ylamino)imidazo [1,2-a]pyridin-3-yl)pyrimidin-2-yl)cyclohexane-1,4-diamine]
GI50 [1]: < 0.001 µM
remaining activity at 10 µM [2]: 0%
remaining activity at 10 µM [3]: 3%
remaining activity at 10 µM [4]: 0%
remaining activity at 10 µM [5]: 0%
remaining activity at 10 µM [6]: 1%
Ki [7]: 0.004 µM
